Results from the NIST ThermoML archive (doi:10.1021/je7003929).
Numbers after ± are expanded uncertainties.

Assay: xn = mol fraction of the nth substance listed
Conditions: Liquid, Vibrating tube method

c1ccc2sccc2c1 [benzo[b]thiophene] + CCCCCC
Conditions	mass density [kg/m3]
312.99 K, 1009 kPa, x2 = 0.2588	1009 ± 0.5
312.99 K, 2023 kPa, x2 = 0.2588	1009.7 ± 0.5
312.99 K, 3016 kPa, x2 = 0.2588	1010.5 ± 0.5
312.99 K, 4029 kPa, x2 = 0.2588	1011.2 ± 0.5
312.99 K, 5004 kPa, x2 = 0.2588	1011.9 ± 0.5
312.99 K, 6021 kPa, x2 = 0.2588	1012.6 ± 0.5
312.99 K, 7031 kPa, x2 = 0.2588	1013.3 ± 0.5
312.99 K, 8005 kPa, x2 = 0.2588	1014 ± 0.5
312.99 K, 9022 kPa, x2 = 0.2588	1014.8 ± 0.5
312.99 K, 10016 kPa, x2 = 0.2588	1015.4 ± 0.5
312.99 K, 11004 kPa, x2 = 0.2588	1016.1 ± 0.5
312.99 K, 12015 kPa, x2 = 0.2588	1016.8 ± 0.5
312.99 K, 13015 kPa, x2 = 0.2588	1017.5 ± 0.5
312.99 K, 14003 kPa, x2 = 0.2588	1018.2 ± 0.5
312.99 K, 15011 kPa, x2 = 0.2588	1018.9 ± 0.5
312.99 K, 16003 kPa, x2 = 0.2588	1019.5 ± 0.5
312.99 K, 17010 kPa, x2 = 0.2588	1020.2 ± 0.5
312.99 K, 18002 kPa, x2 = 0.2588	1020.9 ± 0.5
312.99 K, 19029 kPa, x2 = 0.2588	1021.5 ± 0.5
312.99 K, 20017 kPa, x2 = 0.2588	1022.2 ± 0.5
313 K, 1011 kPa, x2 = 0.0629	1112.7 ± 0.5
313 K, 2027 kPa, x2 = 0.0629	1113.3 ± 0.5
313 K, 3046 kPa, x2 = 0.0629	1113.9 ± 0.5
313 K, 4018 kPa, x2 = 0.0629	1114.5 ± 0.5
313 K, 5014 kPa, x2 = 0.0629	1115.2 ± 0.5
313 K, 6016 kPa, x2 = 0.0629	1115.7 ± 0.5
313 K, 7014 kPa, x2 = 0.0629	1116.3 ± 0.5
313 K, 8008 kPa, x2 = 0.0629	1116.9 ± 0.5
313 K, 9013 kPa, x2 = 0.0629	1117.6 ± 0.5
313 K, 10003 kPa, x2 = 0.0629	1118.1 ± 0.5
313 K, 11005 kPa, x2 = 0.0629	1118.7 ± 0.5
313 K, 12017 kPa, x2 = 0.0629	1119.3 ± 0.5
313 K, 13017 kPa, x2 = 0.0629	1119.9 ± 0.5
313 K, 14023 kPa, x2 = 0.0629	1120.5 ± 0.5
313 K, 15024 kPa, x2 = 0.0629	1121 ± 0.5
313 K, 16016 kPa, x2 = 0.0629	1121.6 ± 0.5
313 K, 17014 kPa, x2 = 0.0629	1122.3 ± 0.6
313 K, 18019 kPa, x2 = 0.0629	1122.8 ± 0.6
313 K, 19014 kPa, x2 = 0.0629	1123.4 ± 0.6
313 K, 20000 kPa, x2 = 0.0629	1124 ± 0.6
313.11 K, 1023 kPa, x2 = 0.9432	669 ± 0.5
313.11 K, 2023 kPa, x2 = 0.9432	670 ± 0.5
313.11 K, 3037 kPa, x2 = 0.9432	671 ± 0.5
313.11 K, 4019 kPa, x2 = 0.9432	672.2 ± 0.5
313.11 K, 5025 kPa, x2 = 0.9432	673.3 ± 0.5
313.11 K, 6058 kPa, x2 = 0.9432	674.4 ± 0.5
313.11 K, 7008 kPa, x2 = 0.9432	675.5 ± 0.5
313.11 K, 8047 kPa, x2 = 0.9432	676.6 ± 0.5
313.11 K, 9025 kPa, x2 = 0.9432	677.6 ± 0.5
313.11 K, 10040 kPa, x2 = 0.9432	678.6 ± 0.5
313.11 K, 11000 kPa, x2 = 0.9432	679.6 ± 0.5
313.11 K, 12016 kPa, x2 = 0.9432	680.7 ± 0.5
313.11 K, 13019 kPa, x2 = 0.9432	681.6 ± 0.5
313.11 K, 14016 kPa, x2 = 0.9432	682.6 ± 0.5
313.11 K, 15029 kPa, x2 = 0.9432	683.6 ± 0.5
313.11 K, 16024 kPa, x2 = 0.9432	684.5 ± 0.5
313.11 K, 17011 kPa, x2 = 0.9432	685.5 ± 0.5
313.11 K, 18015 kPa, x2 = 0.9432	686.4 ± 0.6
313.11 K, 19046 kPa, x2 = 0.9432	687.4 ± 0.6
313.11 K, 20016 kPa, x2 = 0.9432	688.2 ± 0.6
313.13 K, 1017 kPa, x2 = 0.7491	761.8 ± 0.5
313.13 K, 2027 kPa, x2 = 0.7491	762.9 ± 0.5
313.13 K, 3031 kPa, x2 = 0.7491	764 ± 0.5
313.13 K, 4039 kPa, x2 = 0.7491	764.9 ± 0.5
313.13 K, 5021 kPa, x2 = 0.7491	765.9 ± 0.5
313.13 K, 6027 kPa, x2 = 0.7491	766.9 ± 0.5
313.13 K, 7021 kPa, x2 = 0.7491	767.9 ± 0.5
313.13 K, 8054 kPa, x2 = 0.7491	768.9 ± 0.5
313.13 K, 9007 kPa, x2 = 0.7491	769.8 ± 0.5
313.13 K, 10018 kPa, x2 = 0.7491	770.7 ± 0.5
313.13 K, 11018 kPa, x2 = 0.7491	771.6 ± 0.5
313.13 K, 12036 kPa, x2 = 0.7491	772.6 ± 0.5
313.13 K, 13021 kPa, x2 = 0.7491	773.5 ± 0.5
313.13 K, 14007 kPa, x2 = 0.7491	774.3 ± 0.5
313.13 K, 15006 kPa, x2 = 0.7491	775.2 ± 0.5
313.13 K, 16012 kPa, x2 = 0.7491	776 ± 0.5
313.13 K, 17016 kPa, x2 = 0.7491	776.9 ± 0.5
313.13 K, 18000 kPa, x2 = 0.7491	777.8 ± 0.5
313.13 K, 19017 kPa, x2 = 0.7491	778.6 ± 0.5
313.13 K, 20030 kPa, x2 = 0.7491	779.5 ± 0.5
313.15 K, 1025 kPa, x2 = 0.4495	910.7 ± 0.4
313.15 K, 2010 kPa, x2 = 0.4495	911.5 ± 0.4
313.15 K, 3028 kPa, x2 = 0.4495	912.4 ± 0.5
313.15 K, 4011 kPa, x2 = 0.4495	913.2 ± 0.5
313.15 K, 5013 kPa, x2 = 0.4495	914 ± 0.5
313.15 K, 6021 kPa, x2 = 0.4495	914.8 ± 0.5
313.15 K, 7010 kPa, x2 = 0.4495	915.6 ± 0.5
313.15 K, 8033 kPa, x2 = 0.4495	916.4 ± 0.5
313.15 K, 9029 kPa, x2 = 0.4495	917.2 ± 0.5
313.15 K, 10015 kPa, x2 = 0.4495	918 ± 0.5
313.15 K, 11018 kPa, x2 = 0.4495	918.8 ± 0.5
313.15 K, 12012 kPa, x2 = 0.4495	919.5 ± 0.5
313.15 K, 13010 kPa, x2 = 0.4495	920.3 ± 0.5
313.15 K, 14022 kPa, x2 = 0.4495	921 ± 0.5
313.15 K, 15019 kPa, x2 = 0.4495	921.8 ± 0.5
313.15 K, 16008 kPa, x2 = 0.4495	922.6 ± 0.5
313.15 K, 17018 kPa, x2 = 0.4495	923.3 ± 0.5
313.15 K, 18027 kPa, x2 = 0.4495	924.1 ± 0.5
313.15 K, 19006 kPa, x2 = 0.4495	924.8 ± 0.5
313.15 K, 20006 kPa, x2 = 0.4495	925.5 ± 0.5
322.05 K, 1026 kPa, x2 = 0.4495	901.9 ± 0.4
322.05 K, 2020 kPa, x2 = 0.4495	902.8 ± 0.4
322.05 K, 3015 kPa, x2 = 0.4495	903.7 ± 0.4
322.05 K, 4003 kPa, x2 = 0.4495	904.5 ± 0.5
322.05 K, 5014 kPa, x2 = 0.4495	905.4 ± 0.5
322.05 K, 6021 kPa, x2 = 0.4495	906.3 ± 0.5
322.05 K, 7015 kPa, x2 = 0.4495	907.2 ± 0.5
322.05 K, 8009 kPa, x2 = 0.4495	908 ± 0.5
322.05 K, 9028 kPa, x2 = 0.4495	908.9 ± 0.5
322.05 K, 10013 kPa, x2 = 0.4495	909.7 ± 0.5
322.05 K, 11021 kPa, x2 = 0.4495	910.5 ± 0.5
322.05 K, 12023 kPa, x2 = 0.4495	911.3 ± 0.5
322.05 K, 13008 kPa, x2 = 0.4495	912.1 ± 0.5
322.05 K, 14021 kPa, x2 = 0.4495	913 ± 0.5
322.05 K, 15012 kPa, x2 = 0.4495	913.7 ± 0.5
322.05 K, 16018 kPa, x2 = 0.4495	914.5 ± 0.5
322.05 K, 17012 kPa, x2 = 0.4495	915.3 ± 0.5
322.05 K, 18012 kPa, x2 = 0.4495	916.1 ± 0.5
322.05 K, 19007 kPa, x2 = 0.4495	916.9 ± 0.5
322.05 K, 20015 kPa, x2 = 0.4495	917.7 ± 0.5
322.89 K, 1017 kPa, x2 = 0.2588	1000 ± 0.5
322.89 K, 2023 kPa, x2 = 0.2588	1000.8 ± 0.5
322.89 K, 3021 kPa, x2 = 0.2588	1001.5 ± 0.5
322.89 K, 4016 kPa, x2 = 0.2588	1002.3 ± 0.5
322.89 K, 5026 kPa, x2 = 0.2588	1003.1 ± 0.5
322.89 K, 6030 kPa, x2 = 0.2588	1003.8 ± 0.5
322.89 K, 7028 kPa, x2 = 0.2588	1004.6 ± 0.5
322.89 K, 8018 kPa, x2 = 0.2588	1005.3 ± 0.5
322.89 K, 9014 kPa, x2 = 0.2588	1006 ± 0.5
322.89 K, 10021 kPa, x2 = 0.2588	1006.7 ± 0.5
322.89 K, 11005 kPa, x2 = 0.2588	1007.5 ± 0.5
322.89 K, 12022 kPa, x2 = 0.2588	1008.2 ± 0.5
322.89 K, 13013 kPa, x2 = 0.2588	1008.9 ± 0.5
322.89 K, 14012 kPa, x2 = 0.2588	1009.6 ± 0.5
322.89 K, 15017 kPa, x2 = 0.2588	1010.3 ± 0.5
322.89 K, 16016 kPa, x2 = 0.2588	1011 ± 0.5
322.89 K, 17002 kPa, x2 = 0.2588	1011.7 ± 0.5
322.89 K, 18014 kPa, x2 = 0.2588	1012.4 ± 0.5
322.89 K, 19024 kPa, x2 = 0.2588	1013.1 ± 0.5
322.89 K, 20016 kPa, x2 = 0.2588	1013.8 ± 0.5
